How the values were obtained:
AsqJ [1] = target: T1, AsqJ (Aspergillus nidulans, UniProt Q5AR53); assay: EPR titration of Mn2+-loaded AsqJ; type: binding
AsqJ [2] = target: T1, AsqJ; assay: X-ray crystal structure; type: binding; settings: Fe, 2OG; formed in crystal from 1-H with 1 mM ascorbate and O2, 1.63 Å

T1 sequence (Q5AR53 109-416): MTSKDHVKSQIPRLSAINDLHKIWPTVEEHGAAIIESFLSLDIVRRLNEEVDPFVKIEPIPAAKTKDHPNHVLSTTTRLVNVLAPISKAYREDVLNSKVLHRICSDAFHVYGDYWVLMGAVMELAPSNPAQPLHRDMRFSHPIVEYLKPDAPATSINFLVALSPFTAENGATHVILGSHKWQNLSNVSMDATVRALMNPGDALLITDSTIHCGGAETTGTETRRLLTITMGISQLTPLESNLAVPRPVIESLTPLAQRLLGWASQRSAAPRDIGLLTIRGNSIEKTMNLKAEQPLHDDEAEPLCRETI

SMILES | Kd (AsqJ [1]) | X-ray crystal structure (AsqJ [2])
CN1C(=O)c2ccccc2NC(=O)/C1=C/c1ccc(C(F)(F)F)cc1 [2-CF3] | ~5 µM | –
CN1C(=O)c2ccccc2NC(=O)[C@@]12O[C@H]2c1ccccc1 [3-H, cyclopenin] | – | revealed the presence of 3-H, and 2OG in the active site
